Activity calls are given as the source filed them. The calls are words filed in the database; no cut-off is given here.
Assays:
[1] = test system: AML12; assay: Effect on lipid accumulation in oleic and palmitic acid induced mouse AML12 cells assessed as decrease in total cholesterol level; type: functional, cell-based; conditions: dose 3-30 µM
[2] = test system: AML12; assay: Effect on lipid accumulation in oleic and palmitic acid induced mouse AML12 cells assessed as decrease in triglyceride level; type: functional, cell-based; conditions: dose 3-30 µM
[3] = biological target: Na(+)/citrate cotransporter (Homo sapiens) (UniProt Q86YT5); assay: Potency index, ratio of citrate Km to test compound Km for binding affinity to SLC13A5 (unknown origin)
Chain of Na(+)/citrate cotransporter (Homo sapiens) (Q86YT5 whole entry, looked up): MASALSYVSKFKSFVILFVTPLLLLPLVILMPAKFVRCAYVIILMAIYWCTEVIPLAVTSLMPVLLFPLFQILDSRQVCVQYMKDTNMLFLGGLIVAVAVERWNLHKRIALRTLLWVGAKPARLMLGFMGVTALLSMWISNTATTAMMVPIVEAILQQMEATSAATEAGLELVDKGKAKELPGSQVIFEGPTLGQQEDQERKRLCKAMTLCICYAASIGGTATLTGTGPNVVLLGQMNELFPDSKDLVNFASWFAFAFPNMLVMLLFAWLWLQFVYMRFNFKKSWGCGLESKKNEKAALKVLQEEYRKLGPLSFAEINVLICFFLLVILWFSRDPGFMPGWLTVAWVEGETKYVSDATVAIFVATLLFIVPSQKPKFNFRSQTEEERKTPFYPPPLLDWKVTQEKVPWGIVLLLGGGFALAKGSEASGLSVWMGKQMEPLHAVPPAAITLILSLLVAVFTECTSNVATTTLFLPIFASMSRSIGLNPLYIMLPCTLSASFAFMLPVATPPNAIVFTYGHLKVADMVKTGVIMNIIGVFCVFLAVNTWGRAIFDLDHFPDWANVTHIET

[4] = test system: AML12; assay: Lipid lowering effect on PCN-induced lipid accumulation in mouse AML12 cells assessed as decrease in triglyceride level preincubated with compound for 30 mins followed by PCN addition and measured after 24 hrs; type: functional, cell-based; conditions: dose 3-30 µM, time 24.5 hrs
[5] = test system: AML12; assay: Lipid lowering effect on PCN-induced lipid accumulation in mouse AML12 cells assessed as decrease in total cholesterol level preincubated with compound for 30 mins followed by PCN addition and measured after 24 hrs; type: functional, cell-based; conditions: dose 3-30 µM, time 24.5 hrs
[6] = test system: AML12; assay: Lipid lowering effect on PCN-induced lipid accumulation in mouse AML12 cells assessed as decrease in FASN mRNA expression level at 3 to 30 uM preincubated with compound for 30 mins followed by PCN addition and measured after 24 hrs by RT-qPCR analysis; type: functional, cell-based; conditions: dose 3-30 µM, time 24.5 hrs
[7] = test system: AML12; assay: Lipid lowering effect on PCN-induced lipid accumulation in mouse AML12 cells assessed as decrease in HMGCR mRNA expression level at 3 to 30 uM preincubated with compound for 30 mins followed by PCN addition and measured after 24 hrs by RT-qPCR analysis; type: functional, cell-based; conditions: dose 3-30 µM, time 24.5 hrs
[8] = test system: AML12; assay: Lipid lowering effect on PCN-induced lipid accumulation in mouse AML12 cells assessed as decrease in ACLY mRNA expression level at 3 to 30 uM preincubated with compound for 30 mins followed by PCN addition and measured after 24 hrs by RT-qPCR analysis; type: functional, cell-based; conditions: dose 3-30 µM, time 24.5 hrs
[9] = test system: Hepatocyte; assay: Lipid lowering effect on PCN-induced lipid accumulation in mouse Primary hepatocyte assessed as decrease in ACLY mRNA expression level at 3 to 30 uM by RT-qPCR analysis; type: functional, cell-based; conditions: dose 3-30 µM
[10] = test system: Hepatocyte; assay: Lipid lowering effect on PCN-induced lipid accumulation in mouse Primary hepatocyte assessed as decrease in ACC1 mRNA expression level at 3 to 30 uM by RT-qPCR analysis; type: functional, cell-based; conditions: dose 3-30 µM
[11] = test system: Hepatocyte; assay: Lipid lowering effect on PCN-induced lipid accumulation in mouse Primary hepatocyte assessed as decrease in FASN mRNA expression level at 3 to 30 uM by RT-qPCR analysis; type: functional, cell-based; conditions: dose 3-30 µM
[12] = test system: HepG2; assay: Lipid lowering effect on oleic and palmitic acid induced lipid accumulation in human HepG2 cells assessed as decrease in intracellular triglyceride level; type: functional, cell-based; conditions: dose 3-30 µM
[13] = test system: HepG2; assay: Lipid lowering effect on oleic and palmitic acid induced lipid accumulation in human HepG2 cells assessed as decrease in intracellular total cholesterol level; type: functional, cell-based; conditions: dose 3-30 µM
[14] = test system: HepG2; assay: Lipid lowering effect on PCN-induced lipid accumulation in human HepG2 cells assessed as decrease in intracellular triglyceride level; type: functional, cell-based; conditions: dose 3-30 µM
[15] = test system: HepG2; assay: Lipid lowering effect on PCN-induced lipid accumulation in human HepG2 cells assessed as decrease in ACLY mRNA expression level at 3 to 30 uM by RT-qPCR analysis; type: functional, cell-based; conditions: dose 3-30 µM
[16] = test system: HepG2; assay: Lipid lowering effect on PCN-induced lipid accumulation in human HepG2 cells assessed as decrease in HMGCR mRNA expression level at 3 to 30 uM by RT-qPCR analysis; type: functional, cell-based; conditions: dose 3-30 µM
[17] = test system: HepG2; assay: Lipid lowering effect on PCN-induced lipid accumulation in human HepG2 cells assessed as decrease in ACC1 mRNA expression level at 3 to 30 uM by RT-qPCR analysis; type: functional, cell-based; conditions: dose 3-30 µM
[18] = test system: Mus musculus; assay: Lipid lowering activity in starvation-induced hyperlipidemic male C57BL/6J mouse model assessed as decrease in triglyceride level in plasma at 10 to 30 mg/kg, ip starved for 48 hrs followed by compound administration and measured after 2 hrs; type: functional, organism-based; conditions: dose 10-30 mg/kg
[19] = test system: Mus musculus; assay: In vivo inhibition of SLC13A5 in starvation-induced hyperlipidemic male C57BL/6J mouse model assessed as increase in plasma citrate level at 30 mg/kg, ip starved for 48 hrs followed by compound administration and measured after 2 hrs; type: functional, organism-based
[20] = test system: Mus musculus; assay: Lipid lowering activity in starvation-induced hyperlipidemic male C57BL/6J mouse model assessed as downregulation of ACC1 gene expression level starved for 48 hrs followed by oral administration of compound and measured after 2 hrs by RT-qPCR analysis; type: functional, organism-based; conditions: dose 10-30 mg/kg
[21] = test system: Mus musculus; assay: Lipid lowering activity in starvation-induced hyperlipidemic male C57BL/6J mouse model assessed as downregulation of FASN gene expression level starved for 48 hrs followed by oral administration of compound and measured after 2 hrs by RT-qPCR analysis; type: functional, organism-based; conditions: dose 10-30 mg/kg
[22] = test system: Mus musculus; assay: Lipid lowering activity in starvation-induced hyperlipidemic male C57BL/6J mouse model assessed as decrease in LDL to HDL cholesterol ratio at 10 to 30 mg/kg, po starved for 48 hrs followed by compound administration and measured after 2 hrs; type: functional, organism-based; conditions: dose 10-30 mg/kg
[23] = test system: Mus musculus; assay: Lipid lowering activity in PCN-induced hyperlipidemic male C57BL/6J mouse model assessed as decrease in liver triglyceride level at 10 to 30 mg/kg, IG preadministered with compound for 15 to 30 mins followed by PCN administration and measured after 7 days; type: functional, organism-based; conditions: dose 10-30 mg/kg, time 15-10110 min
[24] = test system: Mus musculus; assay: Lipid lowering activity in PCN-induced hyperlipidemic male C57BL/6J mouse model assessed as decrease in plasma total cholesterol level at 10 to 30 mg/kg, IG preadministered with compound for 15 to 30 mins followed by PCN administration and measured after 7 days; type: functional, organism-based; conditions: dose 10-30 mg/kg, time 15-10110 min
[25] = test system: Mus musculus; assay: Lipid lowering activity in PCN-induced hyperlipidemic male C57BL/6J mouse model assessed as decrease in ACC1 mRNA expression level preadministered intragastrically with compound for 15 to 30 mins followed by PCN administration and measured after 7 days by RT-qPCR analysis; type: functional, organism-based; conditions: dose 10-30 mg/kg, route ig, time 15-10110 min
[26] = test system: Mus musculus; assay: Lipid lowering activity in PCN-induced hyperlipidemic male C57BL/6J mouse model assessed as decrease in FASN mRNA expression level preadministered intragastrically with compound for 15 to 30 mins followed by PCN administration and measured after 7 days by RT-qPCR analysis; type: functional, organism-based; conditions: dose 10-30 mg/kg, route ig, time 15-10110 min
[27] = test system: Mus musculus; assay: Effect on SLC13A5 mRNA expression in PCN-induced hyperlipidemic male C57BL/6J mouse model at 10 to 30 mg/kg, IG preadministered with compound for 15 to 30 mins followed by PCN administration and measured after 7 days by RT-qPCR analysis; type: functional, organism-based; conditions: dose 10-30 mg/kg, time 15-10110 min
[28] = test system: Mus musculus; assay: Lipid lowering activity in starvation-induced hyperlipidemic male C57BL/6J mouse model assessed as decrease in number of lipid droplets in liver starved for 48 hrs followed by intraperitoneal administration of compound and measured after 2 hrs by Hematoxylin and eosin staining based analysis; type: functional, organism-based; conditions: dose 10-30 mg/kg, route ip
[29] = test system: Mus musculus; assay: Lipid lowering activity in starvation-induced hyperlipidemic male C57BL/6J mouse model assessed as decrease in size of lipid droplets in liver starved for 48 hrs followed by intraperitoneal administration of compound and measured after 2 hrs by Hematoxylin and eosin staining based analysis; type: functional, organism-based; conditions: dose 10-30 mg/kg, route ip
[30] = test system: Mus musculus; assay: Lipid lowering activity in PCN-induced hyperlipidemic male C57BL/6J mouse model assessed as decrease in lipid accumulation in liver at 30 mg/kg, IG preadministered with compound for 15 to 30 mins followed by PCN administration and measured after 7 days by H&E staining based analysis; type: functional, organism-based; conditions: time 15-10110 min

O=C(O)CC(O)(CCc1ccc(-c2ccccc2)cc1)C(=O)O (stereo not given)
Activity [1]: Dose-Dependent Effect | Activity [2]: Dose-Dependent Effect | Ratio [3]: 2 | Activity [4]: Dose-Dependent Effect | Activity [5]: Dose-Dependent Effect | Activity [6]: Active | Activity [7]: Active | Activity [8]: Active | Activity [9]: Active | Activity [10]: Active | Activity [11]: Active | Activity [12]: Dose-Dependent Effect | Activity [13]: Dose-Dependent Effect | Activity [14]: Dose-Dependent Effect | Activity [15]: Active | Activity [16]: Active | Activity [17]: Active | Activity [18]: Active | inhibition [19]: Active | Activity [20]: Dose-Dependent Effect | Activity [21]: Dose-Dependent Effect | Activity [22]: Active | Activity [23]: Active | Activity [24]: Active | Activity [25]: Dose-Dependent Effect | Activity [26]: Dose-Dependent Effect | Activity [27]: inactive | Activity [28]: Dose-Dependent Effect | Activity [29]: Dose-Dependent Effect | Activity [30]: Active
